Assay results published in US7368421B2, “Use of dipeptidyl peptidase IV inhibitors in the treatment of multiple sclerosis” (Probiodrug AG, priority 2001, dated 2008).
Entries after “also recorded” stand apart in the source; their conditions may differ. Structures can show the parent of a compound that is named as a salt. Marks after values point to notes of the source that are not given here. Each block holds one compound with its values, some of them ahead of it. Square brackets hold non-standard residues; d marks the D form. Peptide text beside a SMILES is read from it. pY = N[C@@H](Cc1ccc(OP(=O)(O)O)cc1)C(=O)O

Tests used:
plasma DP IV activity = biological target: T1, plasma DP IV activity (Rattus norvegicus, UniProt P14740); experiment: DP IV inhibiting activity after intravasal and oral administration to Wistar rats; format: in vivo; settings: 100 mg/kg; for in vivo DP IV-inhibition at tmax, i.v.: intra-vasal (intra-arterial); for in vivo DP IV-inhibition at tmax, p.o.: oral
T1 construct: from tissue; host or cells: plasma of Wistar rats
Experimental: Male Wistar rats (Shoe: Wist(Sho)) with a body weight ranging between 250 and 350 g were purchased from Tierzucht Schönwalde (Schönwalde, Germany).
Animals were single-caged under conventional conditions with controlled temperature (22±2° C.) on a 12/12 hours light/dark cycle (light on at 06:00 AM). Standard pelleted chow (ssniff® Soest, Germany) and tap water acidified with HCl were allowed ad libitum.
After ≧one week of adaptation at the housing conditions, catheters were implanted into the carotid artery of Wistar rats under general anaesthesia (i.p. injection of 0.25 ml/kg b.w. Rompun® [2%], BayerVital, Germany and 0.5 ml/kg b.w. Ketamin 10, Atarost GmbH & Co., Twistringen, Germany). The animals were allowed to recover for one week. The catheters were flushed with heparin-saline (100 IU/ml) three times per week. In case of catheter dysfunction, a second catheter was inserted into the contra-lateral carotid artery of the respective rat. After one week of recovery from surgery, this animal was reintegrated into the study. In case of dysfunction of the second catheter, the animal was withdrawn from the study. A new animal was recruited and the experiments were continued in the planned sequence, beginning at least 7 days after catheter implantation.
After overnight fasting, 100 μl samples of heparinised arterial blood were collected at −30, −5, and 0 min. […] In the case of oral administration, an additional volume of 1 ml saline was injected into the arterial catheter. In the case of intra-arterial administration, the catheter was immediately flushed with 30 μl saline and an additional 1 ml of saline was given orally via the feeding tube.
All blood samples were collected into ice cooled Eppendorf tubes (Eppendorf-Netheler-Hinz, Hamburg, Germany) filled with 10 μl 1 M sodium citrate buffer (pH 3.0) for plasma DP IV activity measurement. Eppendorf tubes were centrifuged immediately (12000 rpm for 2 min, Hettich Zentrifuge EBA 12, Tuttlingen; Germany): The plasma fractions were stored on ice until analysis or were frozen at −20° C. until analysis. All plasma samples were labelled with the following data: • Code number • Animal Number • Date of sampling • Time of sampling Analytical Methods
The assay mixture for determination of plasma DP IV activity consisted of 80 μl reagent and 20 μl plasma sample. […] The DP IV activity was expressed in mU/ml.
All parameters were analysed in a descriptive manner including mean and SD.

porcine DP II = biological target: T2, porcine DP II (Sus scrofa, UniProt A0A5G2QK18); experiment: Inhibition of DP IV-like enzymes, dipeptidyl peptidase II; format: biochemical
T2 construct: The enzyme used was purified from porcine kidney; from tissue; host or cells: porcine kidney
Experimental: DP II (3.4.14.2) releases N-terminal dipeptides from oligopeptides if the N-terminus is not protonated (McDonald, J. K., Ellis, S. & Reilly, T. J., 1966, J. Biol. Chem., 241, 1494-1501). Pro and Ala in P1-position are preferred residues. The enzyme activity is described as DP IV-like activity, but DP II has an acidic pH-optimum. The enzyme used was purified from porcine kidney.
100 μl glutaminylpyrrolidine or glutaminylthazolidine in an concentration range of 1*10^−4 M-5*10^−8M were admixed with 100 μl μl buffer solution (40 mM HEPES, pH7.6, 0.015% Brij, 1 mM DTT), 50 μl lysylalanylaminomethylcoumarine solution (5 mM) and 20 μl porcine DP II (250fold diluted in buffer solution). Fluorescence measurement was performed at 30° C. and λexiatation=380 nm, λemission=465 nm for 25 min using a plate reader (HTS7000plus, Applied Biosystems, Weiterstadt, Germany).

[1] = biological target: T3, Dipeptidyl Peptidase I (DP I, Cathepsin C) (Rattus norvegicus, UniProt P80067); experiment: Cross reacting enzymes: dipeptidyl peptidase I; format: biochemical; settings: concentration range 1*10^−5M-1*10^−7M
T3 construct: purchased Qiagen GmbH, Hilden, Germany
T3 sequence (P80067 25-462): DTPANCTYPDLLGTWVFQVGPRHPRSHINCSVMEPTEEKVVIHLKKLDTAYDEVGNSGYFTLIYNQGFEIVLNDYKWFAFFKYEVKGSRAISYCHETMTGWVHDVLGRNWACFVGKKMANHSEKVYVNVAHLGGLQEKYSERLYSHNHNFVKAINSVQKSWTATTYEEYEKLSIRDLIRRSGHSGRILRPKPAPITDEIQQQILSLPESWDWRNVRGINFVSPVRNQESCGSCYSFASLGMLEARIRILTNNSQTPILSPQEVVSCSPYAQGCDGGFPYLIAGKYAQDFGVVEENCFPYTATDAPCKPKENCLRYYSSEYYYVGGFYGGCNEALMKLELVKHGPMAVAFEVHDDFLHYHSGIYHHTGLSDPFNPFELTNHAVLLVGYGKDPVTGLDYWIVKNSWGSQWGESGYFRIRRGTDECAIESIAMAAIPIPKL
Experimental: DP I or cathepsin C is a lysosomal cysteine protease which cleaves off dipeptides from the N-terminus of their substrates (Gutman, H. R. & Fruton, J. S., 1948, J. Biol. Chem., 174, 851-858). It is classified as a cysteine protease. The enzyme used was purchased from Qiagen (Qiagen GmbH, Hilden, Germany). In order to get a fully active enzyme, the enzyme was diluted 1000 fold in MES buffer pH5,6 (40 mM MES, 4 mM DTT, 4 mM KCl, 2 mM EDTA, 0.015% Brij) and pre-incubated for 30 min at 30° C.
50 μl glutaminylpyrrolidine or glutaminylthazolidine in a concentration range of 1*10^−5M-1*10^−7M were admixed with 110 μl buffer-enzyme-mixture. The assay mixture was pre-incubated at 30° C. for 15 min. After pre-incubation, 100 μl, histidylseryl-β-nitroaniline (2*10^−5M) was added and measurement of yellow color development due to β-nitroaniline release was performed at 30° C. and […] for 10 min., using a plate reader (HTS7000 plus, Applied Biosystems, Weiterstadt, Germany).
The IC 50-values were calculated using Graphit 4.0.15 (Erithacus Software, Ltd., UK).

EAE = settings: chronic treatment, female Lewis rats; cited from earlier work
[2] = tested on: experimental autoimmune encephalomyelitis (EAE); experiment: EAE experiment 1: i.p. treatment day 1-15, female Lewis rats; format: in vivo
Experimental: For the first experiment female inbred Lewis rats (n=50) with a mean body weight of 190±6 g, were obtained from Charles River (Bad Sulzfeld, Germany). Animals were randomly assigned to the different experimental conditions. Rats were housed four per cage under a 12:12 h light: dark cycle (lights off at 18:00 h) and at constant temperature (24° C.) in a specific pathogen free air-conditioned colony room with food (Altromin lab chow pellets) and tap water available ad lib. The animals underwent routine cage maintenance once a week. All research and animal care procedures were approved by the government of Lower Saxony in Hannover, Germany, and performed in compliance with international animal welfare standards.
Guinea pig MBP (50 μg/rat) was emulsified in Complete Freund's adjuvant (CFA) containing heat-killed Mycobacterium tuberculosis (H37Ra; 225 μg/rat) and injected s.c. at the base of the tail in a total volume of 100 μl (12). CFA (Sigma) and heat-killed Mycobacterium tuberculosis (H37Ra) were purchased from Life Technologies, Inc. (Rockville, Md.). Clinical disease was scored on the following scale: 0.5: partial loss of tail tone; 1.0: complete tail atony; 2.0: hind limb weakness; 2.5: hind limb paralysis of one leg; 3.0: hind limb paralysis of both legs; 3.5: limb paralysis of three legs; 4.0: quadriplegia and moribund status; 5.0: death due to EAE. Experiments were terminated on day 15 post immunization when most of the animals were about 48 h after maximal clinical score. The incidence of adjuvant-induced arthritis was remarkably low (n=0 in the 1st experiment) using the base of the tail as an immunization site. […]
Comparison over time between the clinical course of EAE of the different treatment conditions was conducted using a two factorial analysis of variance (ANOVA) for repeated measures. Sums of clinical scores of EAE, onset and peak of disease were calculated on the basis of the clinical scores per day and analyzed using a one factorial ANOVA and post hoc Fisher's PLSD tests, if appropriate. […]

[3] = tested on: experimental autoimmune encephalomyelitis (EAE); experiment: EAE experiment 2: i.p. treatment day 5-15, male Lewis rats; format: in vivo; parameters: key to Average score / Maximal score: 0.5 = partial tail tone loss … 4 = quadriplegia, 5 = death; Onset of disease (1st day of score > 1): unit not given here; settings: for Average score / Maximal score / Onset of disease (1st day of score > 1) / Sum of scores: days 5-15 p.i.
Experimental: For the second experiment, male inbred Lewis rats (n=50) with a mean body weight of 230±12 g, were obtained from Charles River (Bad Sulzfeld, Germany). Animals were randomly assigned to the different experimental conditions. Rats were housed four per cage under a 12:12 h light: dark cycle (lights off at 18:00 h) and at constant temperature (24° C.) in a specific pathogen free air-conditioned colony room with food (Altromin lab chow pellets) and tap water available ad lib. The animals underwent routine cage maintenance once a week.
Guinea pig MBP (50 μg/rat) was emulsified in Complete Freund's adjuvant (CFA) containing heat-killed Mycobacterium tuberculosis (H37Ra; 225 μg/rat) and injected s.c. at the base of the tail in a total volume of 100 μl (12). CFA (Sigma) and heat-killed Mycobacterium tuberculosis (H37Ra) were purchased from Life Technologies, Inc. (Rockville, Md.). Clinical disease was scored on the following scale: 0.5: partial loss of tail tone; 1.0: complete tail atony; 2.0: hind limb weakness; 2.5: hind limb paralysis of one leg; 3.0: hind limb paralysis of both legs; 3.5: limb paralysis of three legs; 4.0: quadriplegia and moribund status; 5.0: death due to EAE. Experiments were terminated on day 21 post immunization (p.i.).
The incidence of adjuvant-induced arthritis was remarkably low (n=0 in the 2nd experiment) using the base of the tail as an immunization site. In the second experiment no signs of arthritis were found. […] This time, these animals remained in the analysis, because this finding is probably due to the treatment. In this experiment a phenomenon called “disease dissociation” was observed. In several animals there was a clear tonus of the tail associated with a clear weakness of the hind limbs. The animals were scored maximal, i.e. 2.
Comparison over time between the clinical course of EAE of the different treatment conditions was conducted using a two factorial analysis of variance (ANOVA) for repeated measures. Sums of clinical scores of EAE, onset and peak of disease were calculated on the basis of the clinical scores per day and analyzed using a one factorial ANOVA and post hoc Fisher's PLSD tests, if appropriate. All data are presented as means±SEM.

T1 sequence (P14740 37-767 limits assumed): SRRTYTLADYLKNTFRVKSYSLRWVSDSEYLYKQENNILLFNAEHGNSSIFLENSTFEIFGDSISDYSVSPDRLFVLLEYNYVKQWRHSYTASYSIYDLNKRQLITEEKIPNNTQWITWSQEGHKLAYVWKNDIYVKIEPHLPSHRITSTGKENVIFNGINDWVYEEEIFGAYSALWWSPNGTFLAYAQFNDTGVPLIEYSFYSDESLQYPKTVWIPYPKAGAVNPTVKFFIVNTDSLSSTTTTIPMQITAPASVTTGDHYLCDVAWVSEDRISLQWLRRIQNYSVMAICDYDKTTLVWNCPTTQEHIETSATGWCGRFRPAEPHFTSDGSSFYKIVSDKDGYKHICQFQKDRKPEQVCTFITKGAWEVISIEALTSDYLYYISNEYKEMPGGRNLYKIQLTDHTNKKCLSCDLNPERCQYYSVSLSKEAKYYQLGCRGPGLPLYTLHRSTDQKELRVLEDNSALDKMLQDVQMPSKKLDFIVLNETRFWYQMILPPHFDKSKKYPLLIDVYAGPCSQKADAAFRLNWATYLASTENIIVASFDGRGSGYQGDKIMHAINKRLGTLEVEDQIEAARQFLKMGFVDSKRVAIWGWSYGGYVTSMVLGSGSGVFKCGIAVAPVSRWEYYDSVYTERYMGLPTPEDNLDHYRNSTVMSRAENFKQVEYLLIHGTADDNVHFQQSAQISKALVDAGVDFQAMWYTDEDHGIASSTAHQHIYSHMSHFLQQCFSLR
T2 sequence (A0A5G2QK18 28-502): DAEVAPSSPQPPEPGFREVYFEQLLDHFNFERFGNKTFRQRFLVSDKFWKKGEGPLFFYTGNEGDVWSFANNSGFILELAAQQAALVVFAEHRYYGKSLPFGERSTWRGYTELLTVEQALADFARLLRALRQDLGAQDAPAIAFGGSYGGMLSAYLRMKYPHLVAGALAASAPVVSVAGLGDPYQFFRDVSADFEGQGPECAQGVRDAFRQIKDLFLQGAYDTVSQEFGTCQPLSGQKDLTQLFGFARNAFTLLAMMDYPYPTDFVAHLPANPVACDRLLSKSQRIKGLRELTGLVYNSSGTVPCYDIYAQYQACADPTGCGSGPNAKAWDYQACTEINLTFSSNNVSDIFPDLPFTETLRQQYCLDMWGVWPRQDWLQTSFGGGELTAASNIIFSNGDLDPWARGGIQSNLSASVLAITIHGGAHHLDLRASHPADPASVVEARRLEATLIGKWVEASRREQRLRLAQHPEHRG

SMILES: CN(C)CCCN1c2ccccc2CCc2ccccc21 [Imipramine]
severity of acute MBP-induced EAE (EAE): reduce the severity

SMILES: CC[C@H](C)[C@H](NC(=O)[C@@H]1CCCN1C(=O)[C@@H](N)Cc1ccc(OP(=O)(O)O)cc1)C(=O)O [Tyr(P)-Pro-Ile] (H-[pY]-Pro-Ile-OH; N-terminus assumed)
in vivo DP IV-inhibition at tmax, p.o. (plasma DP IV activity): no inhibition

SMILES: CC[C@H](C)[C@H](N)C(=O)N1CCSC1 [isoleucyl thiazolidine fumarate]
effect on clinical score of EAE, days 11 and 12 p.i. ([2]; 1 mg dosage i.p. daily from day 1, female Lewis rats, fumarate): significant disease-aggravating effect; also recorded: disease-aggravating effects | effect on clinical score of EAE, day 15 p.i. ([2]; 10 mg dose i.p. daily from day 1, female Lewis rats, fumarate): significantly reduced clinical score | shortening of the latency until onset of disease ([2]; 10 mg/kg i.p. daily from day 1, female Lewis rats): about 1 day | effect on clinical scores in the second peak (classical acute EAE), days 10-13 ([3]; 1 mg dose i.p.): aggravate the clinical scores | Average score ([3]; 1 mg/kg i.p. daily): 0.96* | Maximal score ([3]; 1 mg/kg i.p. daily): 2.8 | Onset of disease (1st day of score > 1) ([3]; 1 mg/kg i.p. daily): 10.3* | Sum of scores ([3]; 1 mg/kg i.p. daily): 14.2* | effect on disease activity after initiation of treatment, days 6-9 ([3]; 3 mg and 10 mg dosages i.p.): induced a significant first peak of disease activity | Average score ([3]; 3 mg/kg i.p. daily): 0.8 | Maximal score ([3]; 3 mg/kg i.p. daily): 3.0 | Onset of disease (1st day of score > 1) ([3]; 3 mg/kg i.p. daily): 12.0 | Sum of scores ([3]; 3 mg/kg i.p. daily): 12.0 | Average score ([3]; 10 mg/kg i.p. daily): 0.72 | Maximal score ([3]; 10 mg/kg i.p. daily): 2.1 | Onset of disease (1st day of score > 1) ([3]; 10 mg/kg i.p. daily): 12.1 | Sum of scores ([3]; 10 mg/kg i.p. daily): 10.8 | Average score ([3]; 30 mg/kg i.p. daily): 0.37** | Maximal score ([3]; 30 mg/kg i.p. daily): 2.0* | Onset of disease (1st day of score > 1) ([3]; 30 mg/kg i.p. daily): 14.0*** | Sum of scores ([3]; 30 mg/kg i.p. daily): 5.6** | effect on clinical scores in the second peak (classical acute EAE), days 10-13 ([3]; 30 mg/kg i.p., fumarate): clearly improved the clinical course; also recorded: significant delaying and ameliorating effects

Second part, the compound after the results:

in vivo DP IV-inhibition at tmax, i.v. (plasma DP IV activity): 89% | in vivo DP IV-inhibition at tmax, p.o. (plasma DP IV activity): 86%
SMILES: Br.CC(=O)OCC(=O)[C@@H]1CCCN1C(=O)[C@@H](NC(=O)[C@H](C)N)C(C)C [Ala-Val-Pro-Acyloxymethylketone, H-Ala-Val-Pro-CH2O—C(O)CH3*HBr]

in vivo DP IV-inhibition at tmax, i.v. (plasma DP IV activity): 97% | in vivo DP IV-inhibition at tmax, p.o. (plasma DP IV activity): 76%
SMILES: Br.CC(C)[C@H](NC(=O)[C@H](C)N)C(=O)N1CCC[C@H]1C(=O)COC(=O)c1ccccc1 [Ala-Val-Pro-Benzoyl-methylketone, H-Ala-Val-Pro-CH2O—C(O)Ph*HBr]

type of inhibition of porcine DP II (porcine DP II): non-competitive type inhibitors | inhibition of DP I enzyme activity [1]: no inhibition
SMILES: NC(=O)CCC(N)C(=O)N1CCCC1 (stereo not drawn) [Gln-Pyrr, glutaminyl pyrrolidine]
